Experimental findings from publication PMC6171417, “Carbonic anhydrase inhibition with a series of novel benzenesulfonamide-triazole conjugates” (Journal of Enzyme Inhibition and Medicinal Chemistry, 2018) are described below.

Common to all, as to assay: cells
Common to all, as to parameters: species or system NCI human tumour cell line panel; NCI one-dose anti-proliferative screen, human tumour cell line panel, growth inhibition percent (GI%)

Assay [1] relates to HT29. The note with it: Homo sapiens, HT-29; growth inhibition (GI%), single dose. As for the experimental part:
(§1) Ten of the newly synthesised 1,2,3-triazolo benzenesulfonamide derivatives were selected by NCI (Bethesda, MD) for evaluating their anti-proliferative activity. The selected compounds were subjected to a primary in vitro one-dose ([…]) anti-proliferative assay against 57 human tumour cell lines following the previously reported method[30] and their obtained growth inhibition percent (GI%) are presented in Table 2. A subset of ten triazolo-benzenesulfonamides (3, 5, 6, 7, 9, 11, 16–18, and 20) were selected and subjected to an in vitro anti-proliferative screening against a panel of 57 cancer cell lines at NCI at an initial high dose ([…]). The human cell lines used were derived from nine cancer types: leukaemia, lung, colon, CNS, melanoma, ovarian, renal, prostate and breast cancers.

Assay [2] concerns UACC-62. The following applies: Homo sapiens, UACC-62; growth inhibition (GI%), single dose. As for the experimental part: as §1
The subject of assay [3] is NCI-H522. The following applies: Homo sapiens, NCI-H522; growth inhibition (GI%), single dose. As for the experimental part: as §1
Assay [4] concerns HS 578T. The following applies: Homo sapiens, Hs-578T; growth inhibition (GI%), single dose. As for the experimental part:
as §1

Assay [5] relates to MOLT-4. The note with it: Homo sapiens, MOLT-4; growth inhibition (GI%), single dose. As for the experimental part:
as §1

For assay [6], the system named is HOP-92. The note with it: Homo sapiens, HOP-92; growth inhibition (GI%), single dose. As for the experimental part:
as §1

Assay [7] concerns SNB-75. The note with it: Homo sapiens, SNB-75; growth inhibition (GI%), single dose. As for the experimental part: as §1
Assay [8] has as its system NCI-H322M. The note with it: Homo sapiens, NCI-H322M; growth inhibition (GI%), single dose. As for the experimental part:
as §1

Assay [9] relates to MCF7. The following applies: Homo sapiens, MCF7; growth inhibition (GI%), single dose. As for the experimental part:
as §1

Assay [10] has as its system CCRF-CEM. The following applies: Homo sapiens, CCRF-CEM; growth inhibition (GI%), single dose. As for the experimental part: as §1
The subject of assay [11] is OVCAR-8. The following applies: Homo sapiens, OVCAR-8; growth inhibition (GI%), single dose. As for the experimental part:
as §1

In assay [12] the test system is A549/ATCC. The note with it: Homo sapiens, A549; growth inhibition (GI%), single dose. As for the experimental part: as §1
The test system of assay [13] is U251. The note with it: Homo sapiens, U-251; growth inhibition (GI%), single dose. As for the experimental part: as §1
Assay [14] deals with T-47D. The note with it: Homo sapiens, T47D; growth inhibition (GI%), single dose. As for the experimental part: as §1
The test system of assay [15] is PC-3. The note with it: Homo sapiens, PC-3; growth inhibition (GI%), single dose. As for the experimental part: as §1
The subject of assay [16] is NCI-H226. The note with it: Homo sapiens, NCI-H226; growth inhibition (GI%), single dose. As for the experimental part: as §1
In assay [17] the test system is UACC-257. The following applies: Homo sapiens, UACC-257; growth inhibition (GI%), single dose. As for the experimental part:
as §1

The test system of assay [18] is SK-OV-3. The note with it: Homo sapiens, SK-OV-3; growth inhibition (GI%), single dose. As for the experimental part: as §1
Assay [19] has as its system HCT-116. The following applies: Homo sapiens, HCT-116; growth inhibition (GI%), single dose. As for the experimental part: as §1
The subject of assay [20] is NCI-H23. The following applies: Homo sapiens, NCI-H23; growth inhibition (GI%), single dose. As for the experimental part: as §1

SMILES strings stand for the structures.

As usually defined, the inhibition is the relative decrease from the control value, in per cent. Lower therefore signals little suppression. As to `N#Cc1nnn(-c2ccc(S(N)(=O)=O)cc2)c1N` [compound 3, 3], the inhibition at 10 µM in assay [1] turned out to be 9.4%; in assay [2], 5.5%; in [3], 9.7%; in assay [4], 5.9%; in [5] it was 13.3%; in [6] it was 8.2%. In addition, the inhibition at 10 µM in assay [7] stood at 15%; in [8], 0%; in [9], 5.5%; in assay [10] it was 15.3%; in assay [11], 4.6%; in assay [12] it was 4.2%. Further, the inhibition at 10 µM is 0.6% in assay [13]; 5.1% in assay [14]; 8.3% in [15]; 5.2% in assay [16]; 10.2% in [17]; 4.6% in assay [18]. Also, at 10 µM the inhibition in assay [19] was 7.1%.
Take `N#Cc1nnn(-c2ccc(S(N)(=O)=O)cc2)c1/N=C/c1ccc(Cl)cc1` [compound 9, 9]: the inhibition at 10 µM in assay [1] came out at 0.4%; in [2] it was 6%; in assay [3], 10.5%; in assay [5], 6.9%; in assay [6] it was 12.8%; in assay [7] it was 2.9%. Also, the inhibition at 10 µM in assay [9] was 4.7%; in assay [10], 15.9%; in assay [11], 7.4%; in [12], 16.1%; in assay [13] it was 4.7%; in [14], 11.5%. Further, the inhibition at 10 µM in [15] worked out at 9.3%; in assay [16] it was 4.8%; in assay [17], 2.3%; in assay [18] it was 9.9%; in assay [19], 1.2%.
As to `N#Cc1nnn(-c2ccc(S(N)(=O)=O)cc2)c1NS(=O)(=O)c1ccccc1` [compound 11, N-(4-cyano-1-(4-sulfamoylphenyl)-1H-1,2,3-triazol-5-yl)benzenesulfonamide], the inhibition at 10 µM worked out at 5.1% in assay [1]; 5.9% in assay [2]; 10.3% in [3]; 11.2% in assay [5]; 4.2% in [6]; 10.2% in assay [7]. The inhibition at 10 µM in assay [20] stood at 4.1%; in [8] it was 2.6%; in [9] it was 1.7%; in assay [10] it was 6.7%; in assay [11], 2.9%; in [12], 11.8%. The inhibition at 10 µM in assay [13] was 10.9%; in [14], 9.6%; in [15] it was 9.7%; in assay [17], 8.1%; in assay [18], 15.1%; in [19] it was 2.1%.
`N#Cc1c(-c2ccc(Cl)cc2)nc2c(nnn2-c2ccc(S(N)(=O)=O)cc2)c1N` [compound 16, 4-(7-amino-5-(4-chlorophenyl)-6-cyano-3H-[1,2,3]triazolo[4,5-b]pyridin-3-yl)benzenesulfonamide]: the inhibition at 10 µM came out at 1.2% in [1]; 15.5% in [2]; 9.8% in assay [3]; 12.1% in assay [4]; 17.6% in assay [5]; 35.4% in assay [6]. Further, the inhibition at 10 µM in assay [7] stood at 20%; in assay [20] it was 11.2%; in [9] it was 13.6%; in assay [10], 16.4%; in [11] it was 3.8%; in [12] it was 8.6%. Besides, the inhibition at 10 µM in assay [13] was 2.7%; in [14] it was 5.6%; in assay [15] it was 22.2%; in [16] it was 9.8%; in [17], 6.9%; in assay [18] it was 9.7%. The inhibition at 10 µM in assay [19] was found to be 4.6%.
Turning to `Nc1nc(=S)[nH]c2c1nnn2-c1ccc(S(N)(=O)=O)cc1` [compound 18, 4-(7-amino-5-thioxo-4,5-dihydro-3H-[1,2,3]triazolo[4,5-d]pyrimidin-3-yl)benzenesulfonamide], the inhibition at 10 µM in [1] was determined as 10.8%; in [2] it was 5.6%; in assay [3] it was 13.7%; in assay [4], 9.8%; in [5], 21.3%; in [6] it was 10.6%. The inhibition at 10 µM in assay [7] was determined as 13.9%; in assay [20], 4.7%; in assay [8], 2.2%; in assay [9], 2.9%; in assay [10], 17.8%; in assay [11], 3.7%. Also, the inhibition at 10 µM was 5.1% in assay [12]; 5.8% in assay [14]; 7.8% in assay [15]; 9.8% in assay [16]; 6.1% in assay [17]; 11.6% in [18].
For `CCn1c(=S)[nH]c2c(nnn2-c2ccc(S(N)(=O)=O)cc2)c1=N` [compound 20, 4-(6-ethyl-7-imino-5-thioxo-4,5,6,7-tetrahydro-3H-[1,2,3]triazolo[4,5-d]pyrimidin-3-yl)benzenesulfonamide], the inhibition at 10 µM came to 4.3% in [2]; 7.8% in assay [3]; 2.5% in assay [4]; 9.1% in [5]; 18% in [6]; 3.3% in assay [7]. For the same compound, the inhibition at 10 µM in assay [20] came out at 9.4%; in [8] it was 3.2%; in [9], 4.9%; in assay [10], 20.9%; in [11] it was 4.8%; in assay [12] it was 12.2%. Moreover, the inhibition at 10 µM was 1.9% in [13]; 9.7% in [15]; 6.9% in assay [16]; 6.2% in assay [17]; 3.6% in assay [18].
